Experiment: Amount of compound an AA-1 polymer formulation can hold
Format: physicochemical
Conditions: by weight
Text: The formulations may be made by mixing the N-halogenated or N,N-dihalogenated amine compound with the polymer using water. Water/oil emulsions, hydrating agents, wetting agents, surfactants, and the like may also be used. Concentrations of N-halogenated or N,N-dihalogenated amine compound may range from about 0.01% to about 5.0% (by weight). Concentrations of polymer may be from about 0.01% to about 10% (by weight) in water. For example, in certain implementations, the concentration of N-halogenated or N,N-dihalogenated compounds may range from about 0.1% to about 2.0% (by weight). Higher concentrations of polymer may be required to formulate higher concentrations of the N-halogenated or N,N-dihalogenated amine compound. For example, a 1% AA-1 formulation can hold up to about 2% N,N-dichloro-2,2-dimethyltaurine, whereas a 2% AA-1 formulation can hold up to about 3.5% of the same compound. These ratios may differ as different polymers and N-halogenated or N,N-dihalogenated amine compound are combined in a given formulation.

For `CC(C)(CS(=O)(=O)O)N(Cl)Cl` [NVC-422, N,N-dichloro-2,2-dimethyltaurine], the “amount of compound the formulation can hold” value (1% AA-1 formulation) was “about 2%” and the “amount of compound the formulation can hold” value (2% AA-1 formulation) was “about 3.5%”.

Source: patent US20140227201A1, “Antimicrobial Gel Formulations” (NovaBay Pharmaceuticals, Inc., priority 2013, published 2014)
